Key:
Assay type in all cases: binding
BCL6 [1] = biological target: BCL6 (Homo sapiens, UniProt P41182); test: competitive TR-FRET, displacement of FITC-BCoR peptide
BCL6 [2] = biological target: BCL6 (Homo sapiens, UniProt P41182, E41A); test: as above
BCL6 [3] = biological target: BCL6 (Homo sapiens, UniProt A5PL18); test: cryo-EM of the BCL6 filament

CNC(=O)COc1cc2cc(Nc3nc(N4CCC(C(=O)N(C)C)CC4)ncc3Cl)cc(OC)c2n(C)c1=O [BI-3812]
competitive TR-FRET, displacement of FITC-BCoR peptide (BCL6 [1]): despite comparable affinity of both BI-3802 and BI-3812 to BCL6 (Extended Data Fig. 8h)

CNC(=O)COc1cc2cc(Nc3nc(N4C[C@H](C)C[C@H](C)C4)ncc3Cl)ccc2n(C)c1=O [BI-3802]
competitive TR-FRET, displacement of FITC-BCoR peptide (BCL6 [2]): the E41A substitution did not impair drug binding to BCL6 (Extended Data Fig. 4f)
EC50 (BCL6 [3]): 64 nM
